In patent EP0010209A1, “N-Benzoyl-retinyl amines, process for their preparation, pharmaceutical compositions comprising them and the use of these compounds for the therapy and prophylaxis of precanceroses and carcinomas of the skin” (BASF Aktiengesellschaft, priority 1978, dated 1980):

Legend:
Brustkrebs bei Ratten = test: Prevention of nitrosomethylurea-induced mammary cancer in rats; format: in vivo, Sprague-Dawley Ratten; settings: nitrosomethylurea 50 mg/kg i.v., 2 mmol/kg diet from day 3, 12 weeks
tracheal cartilage = settings: toxicity to tracheal cartilage in vitro; from Nature 263, 110-113 (1976); read-out: celluläre Toxizitätsschwelle (Konzentration); cited from earlier work
[1] = tested on: durch Vitamin A-Hypovitaminose keratinisierten Hamstertrachealgewebe; settings: hamster tracheal tissue keratinised by vitamin A deficiency; active only at this concentration; cited from earlier work

For CC1=C(/C=C/C(C)=C/C=C/C(C)=C/CNC(=O)c2ccccc2)C(C)(C)CCC1 [Benzoyl-retinylamin, N-Benzoyl-all-E-Retinylamin], the “Zahl der Tumoren” value (Brustkrebs bei Ratten; all tumours) was 10, the “Zahl der Tumoren davon größer als 1,0 g” value (Brustkrebs bei Ratten; tumours > 1,0 g) was 2 and the “Zahl der Tumoren größer als 0,100 g” value (Brustkrebs bei Ratten; tumours > 0,100 g) was 4.
In the case of CC(=O)NCC=C(C)C=CC=C(C)C=CC1=C(C)CCCC1(C)C [N-Acetyl-retinylamin], the MCC (tracheal cartilage) is listed as over 10 µM and the “Konzentration, in der Aktivität vorliegt” value [1] is listed as 9.10^-9 molar.
